Test results: patent US20040034078A1 (Agouron Pharmaceuticals, Inc., priority 2002, published 2004)

Biological target: purified PARP protein (Homo sapiens, UniProt P09874)
Assay: PARP Enzyme Inhibition Assay
Format: biochemical
Conditions: [32P]NAD+ incorporation, 500 μM NAD+, 25° C.; competitive inhibition fit; read-out: Inhibition Constant Ki
Description: The PARP enzyme-inhibiting activities of test compounds were assayed as described by Simonin et al. (J. Biol. Chem. (1993), 268:8529-8535) and Marsischky et al. (J. Biol. Chem. (1995), 270:3247-3254) with minor modifications as follows. Samples (50 μL) containing 20 nM purified PARP protein, 10 μg/mL DNAse I-activated calf thymus DNA (sigma), 500 μM NAD^+, 0.5 μCi [^32P]NAD^+, 2% DMSO, and various concentrations of test compounds were incubated in sample buffer (50 mM Tris pH 8.0, 10 mM MgCl2, 1 mM tris(carboxyethyl)phosphine HCl) at 25° C. for 5 minutes. Under these conditions, the reaction rate was linear for times up to 10 minutes. The reaction was stopped by the addition of an equal volume of ice-cold 40% trichloroacetic acid to the samples, which were then incubated on ice for 15 minutes. The samples were then transferred to a Bio-Dot microfiltration apparatus (BioRad), filtered through Whatman GF/C glass-fiber filter paper, washed 3 times with 150 μL of wash buffer (5% trichloroacetic acid, 1% inorganic pyrophosphate), and dried. [^32P]ADP-Ribose incorporation into the acid-insoluble material was quantitated using a PhosphorImager (Molecular Dynamics) and ImageQuant software. Inhibition constants (Ki) were calculated by non-linear regression analyses using the velocity equation for competitive inhibition (Segel, Enzyme Kinetics: Behavior and Analysis of Rapid Equilibrium and Steady-State Enzyme Systems, John Wiley & Sons, Inc., New York (1975), 100-125). In the case of tight-binding inhibitors, 5 nM enzyme was used and the reaction was incubated at 25° C. for 25 minutes. Ki values for tight-binding inhibitors were calculated using the equation described by Sculley et al. (Biochim. Biophys. Acta (11986), 874:44-53).

Chain of purified PARP protein (P09874 whole entry): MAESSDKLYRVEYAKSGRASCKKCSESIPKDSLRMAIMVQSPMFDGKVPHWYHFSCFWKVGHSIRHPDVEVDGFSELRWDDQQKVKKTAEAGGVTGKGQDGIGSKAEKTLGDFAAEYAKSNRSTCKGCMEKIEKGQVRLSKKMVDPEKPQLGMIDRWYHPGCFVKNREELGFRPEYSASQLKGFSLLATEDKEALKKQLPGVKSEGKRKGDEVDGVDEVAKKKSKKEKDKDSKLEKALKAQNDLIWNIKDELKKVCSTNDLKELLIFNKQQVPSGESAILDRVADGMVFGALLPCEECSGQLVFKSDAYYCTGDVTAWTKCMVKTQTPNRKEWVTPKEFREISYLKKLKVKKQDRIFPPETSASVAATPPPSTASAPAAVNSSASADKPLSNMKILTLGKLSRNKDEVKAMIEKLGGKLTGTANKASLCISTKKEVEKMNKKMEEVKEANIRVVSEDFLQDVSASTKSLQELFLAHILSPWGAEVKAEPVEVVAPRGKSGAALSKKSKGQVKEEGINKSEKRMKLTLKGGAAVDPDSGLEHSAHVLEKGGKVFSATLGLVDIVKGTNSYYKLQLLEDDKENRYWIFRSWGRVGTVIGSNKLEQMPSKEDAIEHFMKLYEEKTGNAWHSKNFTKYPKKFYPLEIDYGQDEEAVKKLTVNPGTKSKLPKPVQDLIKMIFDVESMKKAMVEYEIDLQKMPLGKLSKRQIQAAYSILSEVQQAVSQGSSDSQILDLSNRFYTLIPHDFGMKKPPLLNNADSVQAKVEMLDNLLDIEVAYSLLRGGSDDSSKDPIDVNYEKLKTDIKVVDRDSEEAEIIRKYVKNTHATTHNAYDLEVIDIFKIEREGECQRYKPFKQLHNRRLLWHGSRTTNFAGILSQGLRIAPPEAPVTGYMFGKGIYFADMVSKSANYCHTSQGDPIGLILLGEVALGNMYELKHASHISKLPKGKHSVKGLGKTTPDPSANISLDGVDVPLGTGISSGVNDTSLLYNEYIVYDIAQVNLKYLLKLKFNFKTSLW

| Structure (SMILES) | Ki |
| --- | --- |
| CCCCCCCS(=O)(=O)Cc1nc2c(C(N)=O)cccc2[nH]1 [Compound 31, 2-(Heptane-1-sulfonylmethyl)-1H-benzimidazole-4-carboxylic Acid Amide] | 61 ± 10 nM |
| CC(=O)Nc1nnc(SCc2nc3c(C(N)=O)cccc3[nH]2)s1 [Compound 5, 2-(5-Acetylamino-[1,3,4]thiadiazol-2-ylsulfanylmethyl)-1H-benzimidazole-4-carboxylic Acid Amide] | 11 ± 1 nM |
| CN(C)c1ccc(SCc2nc3c(C(N)=O)cccc3[nH]2)cc1 [Compound 12, 2-(4-Dimethylamino-phenylsulfanylmethyl)-1H-benzimidazole-4-carboxylic Acid Amide] | 91 ± 3 nM |
| COc1ccc(SCc2nc3c(C(N)=O)cccc3[nH]2)cc1 [Compound 8, 2-(4-Methoxy-phenylsulfanylmethyl)-1H-benzimidazole-4-carboxylic Acid Amide] | 9 ± 1 nM |
| NC(=O)c1cccc2[nH]c(CSc3nnc(-c4ccccc4)o3)nc12 [Compound 6, 2-(5-Phenyl-[1,3,4]oxadiazol-2-ylsulfanylmethyl)-1H-benzimidazole-4-carboxylic Acid Amide] | 102 nM |
| CCC(=O)Nc1ccc(SCc2nc3c(C(N)=O)cccc3[nH]2)cc1 [Compound 24, 2-(4-Propionylamino-phenylsulfanylmethyl)-1H-benzimidazole-4-carboxylic Acid Amide] | 36 ± 2 nM |
| CS(=O)(=O)c1ccc(S(=O)(=O)Cc2nc3c(C(N)=O)cccc3[nH]2)cc1 [Compound 35, 2-(4-Methanesulfonyl-benzenesulfonylmethyl)-1H-benzimidazole-4-carboxylic Acid Amide] | 5 ± 1 nM |
| NC(=O)c1cccc2[nH]c(CSc3ccc(C(F)(F)F)cc3)nc12 [Compound 13, 2-(4-Trifluoromethyl-phenylsulfanylmethyl)-1H-benzimidazole-4-carboxylic Acid Amide] | 39 ± 5 nM |
| CCC(=O)Nc1ccc(S(=O)(=O)Cc2nc3c(C(N)=O)cccc3[nH]2)cc1 [Compound 36, 2-(4-Propionylamino-benzenesulfonylmethyl)-1H-benzimidazole-4-carboxylic Acid Amide] | 17.8 ± 0.8 nM |
| CN(Cc1nc2c(C(N)=O)cccc2[nH]1)Cc1ccccc1O [Compound 15] | 45 ± 3 nM |
| NC(=O)Nc1ccc(S(=O)(=O)Cc2nc3c(C(N)=O)cccc3[nH]2)cc1 [Compound 39, 2-(4-Ureido-benzenesulfonylmethyl)-1H-benzoimidazole-4-carboxylic Acid Amide] | 29.5 ± 2.5 nM |
| NC(=O)c1cccc2[nH]c(CSc3ccc(NC(=O)OCc4ccccc4)cc3)nc12 [Compound 25] | 39 nM |
| NC(=O)c1cccc2[nH]c(CNC3CN4CCC3CC4)nc12 (centres unmarked) [Compound 21, 2-[(1-Aza-bicyclo[2.2.2]oct-3-ylamino)-methyl]-1H-benzimidazole-4-carboxylic Acid Amide] | 9 ± 2 nM |
| CNCCN(C)Cc1nc2c(C(N)=O)cccc2[nH]1 [Compound 23, 2-{[Methyl-(2-methylamino-ethyl)-amino]-methyl}-1H-benzimidazole-4-carboxylic Acid Amide] | 14 nM |
| CSc1ccc(SCc2nc3c(C(N)=O)cccc3[nH]2)cc1 [Compound 14, 2-(4-Methylsulfanyl-phenylsulfanylmethyl)-1H-benzimidazole-4-carboxylic Acid Amide] | 11 ± 2 nM |
| NC(=O)c1cccc2[nH]c(CSc3ccc(O)cc3)nc12 [Compound 4, 2-(4-Hydroxy-phenylsulfanylmethyl)-1H-benzimidazole-4-carboxylic Acid Amide] | 13 nM |
| NC(=O)c1cccc2[nH]c(CSc3ccc(N)cc3)nc12 [Compound 10, 2-(4-Amino-phenylsulfanylmethyl)-1H-benzimidazole-4-carboxylic Acid Amide] | 17 ± 1 nM |
| NC(=O)c1cccc2[nH]c(CNCCCN3CCCC3)nc12 [Compound 16, 2-[(3-Pyrrolidin-1-yl-propylamino)-methyl]-1H-benzimidazole-4-carboxylic Acid Amide] | 15 ± 3 nM |
| COC(=O)Nc1ccc(S(=O)(=O)Cc2nc3c(C(N)=O)cccc3[nH]2)cc1 [Compound 37, [4-(4-Carbamoyl-1H-benzoimidazol-2-ylmethanesulfonyl)-phenyl]-carbamic Acid Methyl Ester] | 28.5 ± 0.5 nM |
| NC(=O)c1cccc2[nH]c(CSc3ccc([N+](=O)[O-])cc3)nc12 [Compound 3, 2-(4-Nitro-phenylsulfanylmethyl)-1H-benzimidazole-4-carboxylic Acid Amide] | 8 nM |
| CCCCCCCSCc1nc2c(C(N)=O)cccc2[nH]1 [Compound 11, 2-Heptylsulfanylmethyl-1H-benzimidazole-4-carboxylic Acid Amide] | 33 ± 6 nM |
| CN(Cc1nc2c(C(N)=O)cccc2[nH]1)c1ccccc1 [Compound 20, 2-[(Methyl-phenyl-amino)-methyl]-1H-benzimidazole-4-carboxylic Acid Amide] | 14 ± 3 nM |

The remaining lines, values ahead:

| Ki | Structure (SMILES) |
| --- | --- |
| 319 ± 36 nM | NC(=O)c1cccc2[nH]c(N)nc12 [Compound 56, 2-Amino-1H-benzoimidazole-4-carboxylic Acid Amide] |
| 66 ± 8 nM | NC(=O)c1cccc2[nH]c(NCc3ccccc3)nc12 [Compound 58, 2-Benzylamino-1H-benzoimidazole-4-carboxylic Acid Amide] |
| 70 ± 15 nM | NC(=O)c1cccc2[nH]c(SCc3ccccc3)nc12 [Compound 40, 2-Benzylsulfanyl-1H-benzimidazole-4-carboxylic Acid Amide] |
| 23 ± 4 nM | CCN(CC)CCNc1nc2c(C(N)=O)cccc2[nH]1 [Compound 59, 2-(2-Diethylamino-ethylamino)-1H-benzoimidazole-4-carboxylic Acid Amide] |
| 800 nM | NC(=O)c1cccc2[nH]c(S(=O)(=O)Cc3ccccc3)nc12 [Compound 41, 2-Phenylmethansulfonyl-1H-benzimidazole-4-carboxylic Acid Amide] |
| 44 ± 4 nM | CN(C)c1nc2c(C(N)=O)cccc2[nH]1 [Compound 57, 2-Dimethylamino-1H-benzoimidazole-4-carboxylic Acid Amide] |
| 85 ± 8 nM | CNc1nc2c(C(N)=O)cccc2[nH]1 [Compound 55, 2-Methylamino-1H-benzoimidazole-4-carboxylic Acid Amide] |
| 35 ± 6 nM | CN(CCc1ccccc1)c1nc2c(C(N)=O)cccc2[nH]1 [Compound 54, 2-(Methyl-phenethyl-amino)-1H-benzoimidazole-4-carboxylic Acid Amide] |
| 12 ± 1 nM | NC(=O)c1cccc2[nH]c(NCCc3cnc[nH]3)nc12 [Compound 61, 2-[2-(3H-Imidazol-4-yl)-ethylamino]-1H-benzoimidazole-4-carboxylic Acid Amide] |
| 81 ± 10 nM | NC(=O)c1cccc2[nH]c(NCCc3cccs3)nc12 [Compound 60, 2-(2-Thiophen-2-yl-ethylamino)-1H-benzoimidazole-4-carboxylic Acid Amide] |
| 4.7 ± 0.2 nM | NC(=O)c1cccc2[nH]c(SCc3ccc([N+](=O)[O-])cc3)nc12 [Compound 44, 2-(4-Nitro-benzylsulfanyl)-1H-benzimidazole-4-carboxylic Acid Amide] |
| 33 ± 3 nM | NC(=O)c1cccc2[nH]c(CSCCN3CCc4ccccc4C3)nc12 [Compound 46, 2-[2-(3,4-Dihydro-1H-isoquinolin-2-yl)-ethylsulfanylmethyl]-1H-benzoimidazole-4-carboxylic Acid Amide] |
| 27 ± 4 nM | CSc1nc2c(C(N)=O)cccc2[nH]1 [Compound 52, 2-Methylsulfanyl-3H-benzoimidazolc-4-carboxylic Acid Amide] |
